What all share (assay type): biochemical
Test [1] concerns the target T1, recombinant human DAO (diamine oxidase) (Homo sapiens, UniProt P19801).
T1 construct: purchased R&D systems
T1 sequence (P19801 20-751): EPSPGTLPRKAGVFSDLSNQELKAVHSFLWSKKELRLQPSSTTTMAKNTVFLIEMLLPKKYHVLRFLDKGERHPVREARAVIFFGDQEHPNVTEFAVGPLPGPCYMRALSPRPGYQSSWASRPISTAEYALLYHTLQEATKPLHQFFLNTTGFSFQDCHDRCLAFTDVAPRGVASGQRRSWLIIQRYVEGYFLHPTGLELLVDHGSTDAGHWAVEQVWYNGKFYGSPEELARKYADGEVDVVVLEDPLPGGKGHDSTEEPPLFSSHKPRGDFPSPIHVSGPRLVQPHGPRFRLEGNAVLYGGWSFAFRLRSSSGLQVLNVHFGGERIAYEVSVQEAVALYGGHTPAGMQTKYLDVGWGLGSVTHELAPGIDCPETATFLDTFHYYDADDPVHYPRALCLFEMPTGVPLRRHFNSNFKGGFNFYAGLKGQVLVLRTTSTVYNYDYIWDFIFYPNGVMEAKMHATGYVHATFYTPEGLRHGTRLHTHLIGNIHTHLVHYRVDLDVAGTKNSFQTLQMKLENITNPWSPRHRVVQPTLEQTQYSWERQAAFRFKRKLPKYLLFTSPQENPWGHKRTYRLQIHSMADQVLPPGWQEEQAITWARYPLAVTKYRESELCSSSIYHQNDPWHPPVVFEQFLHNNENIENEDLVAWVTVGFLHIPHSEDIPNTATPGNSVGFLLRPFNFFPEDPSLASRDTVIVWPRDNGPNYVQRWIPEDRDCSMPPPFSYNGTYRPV
Put plainly: Amplex Red HRP-coupled amine oxidase activity evaluation, recombinant human DAO. The conditions noted are these: substrate 1 mM putrescine; read-out: Inhibitory Activity (IC50, nM) DAO.

Test [2] has as its target T2, recombinant human MAO-B (monoamine oxidase-B) (Homo sapiens, UniProt P27338).
T2 construct: purchased Sigma-Aldrich
T2 sequence (P27338 1-520): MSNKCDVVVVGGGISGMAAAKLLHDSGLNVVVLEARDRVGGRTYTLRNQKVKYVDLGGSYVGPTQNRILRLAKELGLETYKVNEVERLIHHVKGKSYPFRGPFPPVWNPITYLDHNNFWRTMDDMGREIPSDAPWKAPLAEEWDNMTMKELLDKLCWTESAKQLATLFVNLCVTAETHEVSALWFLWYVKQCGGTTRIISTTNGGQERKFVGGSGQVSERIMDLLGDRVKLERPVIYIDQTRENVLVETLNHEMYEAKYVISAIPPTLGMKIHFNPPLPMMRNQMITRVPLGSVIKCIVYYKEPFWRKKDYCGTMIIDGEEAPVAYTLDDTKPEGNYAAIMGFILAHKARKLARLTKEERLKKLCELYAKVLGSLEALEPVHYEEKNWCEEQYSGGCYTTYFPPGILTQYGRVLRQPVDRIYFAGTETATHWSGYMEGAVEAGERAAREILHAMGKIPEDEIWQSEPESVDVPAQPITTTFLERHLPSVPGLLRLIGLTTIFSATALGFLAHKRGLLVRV
Put plainly: Amplex Red HRP-coupled amine oxidase activity evaluation, recombinant human MAO-B. The conditions noted are these: substrate 1 mM benzylamine; read-out: Inhibitory Activity (IC50, nM) MAO-B.

In test [3] the target is T3, recombinant human MAO-A (monoamine oxidase-A) (Homo sapiens, UniProt P21397).
T3 construct: purchased Sigma-Aldrich
T3 sequence (P21397 1-527): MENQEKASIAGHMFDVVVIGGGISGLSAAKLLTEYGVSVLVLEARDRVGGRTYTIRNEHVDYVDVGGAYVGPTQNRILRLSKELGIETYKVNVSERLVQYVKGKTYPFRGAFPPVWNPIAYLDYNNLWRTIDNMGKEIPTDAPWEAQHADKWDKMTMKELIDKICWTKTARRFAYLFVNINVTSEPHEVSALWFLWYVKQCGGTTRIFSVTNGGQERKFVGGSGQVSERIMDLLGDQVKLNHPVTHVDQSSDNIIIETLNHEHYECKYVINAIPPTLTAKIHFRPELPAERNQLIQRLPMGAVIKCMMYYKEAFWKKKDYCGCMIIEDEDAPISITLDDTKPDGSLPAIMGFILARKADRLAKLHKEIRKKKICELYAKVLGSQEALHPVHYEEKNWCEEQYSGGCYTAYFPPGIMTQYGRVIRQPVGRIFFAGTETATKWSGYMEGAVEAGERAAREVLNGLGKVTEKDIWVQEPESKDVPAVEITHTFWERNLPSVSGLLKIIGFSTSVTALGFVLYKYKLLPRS
Put plainly: Amplex Red HRP-coupled amine oxidase activity evaluation, recombinant human MAO-A. The conditions noted are these: substrate 0.5 mM tyramine; read-out: Inhibitory Activity (IC50, nM) MAO-A.

In a further test the target is T4, recombinant human VAP-1 (Homo sapiens, UniProt Q16853).
T4 construct: purchased R&D systems
T4 sequence (Q16853 1-763): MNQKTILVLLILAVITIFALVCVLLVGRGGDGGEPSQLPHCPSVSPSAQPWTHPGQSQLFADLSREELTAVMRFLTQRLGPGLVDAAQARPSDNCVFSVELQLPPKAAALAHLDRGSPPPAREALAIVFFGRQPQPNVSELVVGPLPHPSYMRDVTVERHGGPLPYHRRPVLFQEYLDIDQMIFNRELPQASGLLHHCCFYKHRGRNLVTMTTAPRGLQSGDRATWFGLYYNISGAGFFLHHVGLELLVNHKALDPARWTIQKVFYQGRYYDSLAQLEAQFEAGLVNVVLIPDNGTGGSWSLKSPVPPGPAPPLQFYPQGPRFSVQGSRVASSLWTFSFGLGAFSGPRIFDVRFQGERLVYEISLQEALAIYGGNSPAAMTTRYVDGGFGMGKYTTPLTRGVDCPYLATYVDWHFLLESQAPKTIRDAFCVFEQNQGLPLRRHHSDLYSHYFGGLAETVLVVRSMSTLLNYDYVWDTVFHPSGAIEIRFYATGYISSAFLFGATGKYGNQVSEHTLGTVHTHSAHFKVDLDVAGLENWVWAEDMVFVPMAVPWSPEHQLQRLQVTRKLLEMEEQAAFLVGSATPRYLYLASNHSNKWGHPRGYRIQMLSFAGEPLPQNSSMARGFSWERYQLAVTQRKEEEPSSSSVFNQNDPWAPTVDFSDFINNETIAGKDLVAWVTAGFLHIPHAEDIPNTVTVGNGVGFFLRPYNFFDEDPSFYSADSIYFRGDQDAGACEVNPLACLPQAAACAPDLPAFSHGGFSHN
Put plainly: Amplex Red HRP-coupled amine oxidase activity evaluation, recombinant human VAP-1. The conditions noted are these: substrate 1 mM benzylamine; 30 min preincubation at 37° C.; read-out: Inhibitory Activity (IC50, nM) human VAP-1. Put shortly: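 Benzylamine served as substrate (1 mM in the reaction mix, with 200 uM Amplex Red and 1 U/mL HRP), with the H2O2 produced detected as resorufin fluorescence. Compound and VAP-1 were first incubated for 30 min at 37° C in pH 7.4 sodium phosphate buffer.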

Each structure is given as a SMILES string. Counter-ions that a name gives are not always drawn.

The term IC50 denotes the midpoint of a concentration-inhibition curve.

With `Cc1cc(-c2cccc(Cn3nnn(CC(CN)=C(F)F)c3=O)c2)cc2c1NC(=O)CC2` [Example 31, 6-[3-[[4-[2-(aminomethyl)-3,3-difluoro-allyl]-5-oxo-tetrazol-1-yl]methyl]phenyl]-8-methyl-3,4-dihydro-1H-quinolin-2-one trifluoroacetate], the IC50 in test [1] was determined as 127 nM; in test [2], 9000 nM; in test [3], 82100 nM; on recombinant human VAP-1, 0.6 nM.

Consider `CCn1cc(-c2cccc(Cn3nnn(CC(CN)=C(F)F)c3=O)c2)cn1` [Example 32, 1-[2-(aminomethyl)-3,3-difluoro-allyl]-4-[[3-(1-ethylpyrazol-4-yl)phenyl]methyl]tetrazol-5-one trifluoroacetate], for which the IC50 was 811 nM in test [1], 2320 nM in test [2], over 100000 nM in test [3] and 0.4 nM at recombinant human VAP-1.

As for `CN1C(=O)CCc2cc(-c3cccc(Cn4nnn(CC(CN)=C(F)F)c4=O)c3)ccc21` [Example 33, 6-[3-[[4-[2-(aminomethyl)-3,3-difluoro-allyl]-5-oxo-tetrazol-1-yl]methyl]phenyl]-1-methyl-3,4-dihydroquinolin-2-one trifluoroacetate], the IC50 in test [1] is 122 nM; in test [2] it was 3990 nM; in test [3], 81400 nM; on recombinant human VAP-1 it was 0.3 nM.

In the case of `CCn1cc(-c2cccc(Cn3nnn(CC(CN)=C(F)F)c3=O)c2)ccc1=O` [Example 34, 5-[3-[[4-[2-(aminomethyl)-3,3-difluoro-allyl]-5-oxo-tetrazol-1-yl]methyl]phenyl]-1-ethyl-pyridin-2-one trifluoroacetate], the IC50 is 12500 nM in test [1], 53900 nM in test [2], over 100000 nM in test [3] and 0.6 nM on recombinant human VAP-1.

Regarding `CS(=O)(=O)c1ccc(-c2csc(-n3nnn(CC(CN)=C(F)F)c3=O)c2)cc1` [Example 35, 1-[2-(aminomethyl)-3,3-difluoro-allyl]-4-[4-(4-methylsulfonylphenyl)-2-thienyl]tetrazol-5-one trifluoroacetate], the IC50 in test [1] is 32200 nM; in test [2] it was 1430 nM; in test [3], over 100000 nM; on recombinant human VAP-1, 0.4 nM.

`NCC(Cn1nnn(-c2cc(-c3ccc(N4CCNCC4)cc3)cs2)c1=O)=C(F)F` [Example 36, 1-[2-(aminomethyl)-3,3-difluoro-allyl]-4-[4-(4-piperazin-1-ylphenyl)-2-thienyl]tetrazol-5-one di-trifluoroacetate]: the IC50 in test [1] was 8470 nM; in test [2], over 100000 nM; in test [3], over 100000 nM; on recombinant human VAP-1, 1.1 nM.

For the molecule `CCn1cc(-c2csc(-n3nnn(CC(CN)=C(F)F)c3=O)c2)ccc1=O` [Example 37, 5-[5-[4-[2-(aminomethyl)-3,3-difluoro-allyl]-5-oxo-tetrazol-1-yl]-3-thienyl]-1-ethyl-pyridin-2-one trifluoroacetate], the IC50 in test [1] was 25300 nM; in test [2] it was 3450 nM; in test [3], over 100000 nM; on recombinant human VAP-1 it was 0.3 nM.

In the case of `CN(C)c1ccc(-c2csc(-n3nnn(CC(CN)=C(F)F)c3=O)c2)cn1` [Example 38, 1-[2-(aminomethyl)-3,3-difluoro-allyl]-4-[4-[6-(dimethylamino)-3-pyridyl]-2-thienyl]tetrazol-5-one trifluoroacetate], the IC50 was over 100000 nM in test [1], 768 nM in test [2], over 100000 nM in test [3] and 0.8 nM on recombinant human VAP-1.

Consider `NCC(Cn1nnn(-c2cc(-c3ccc4c(c3)OCO4)cs2)c1=O)=C(F)F` [Example 39, 1-[2-(aminomethyl)-3,3-difluoro-allyl]-4-[4-(1,3-benzodioxol-5-yl)-2-thienyl]tetrazol-5-one trifluoroacetate], for which the IC50 in test [1] was 88 nM; in test [2], 21 nM; in test [3], 26200 nM; at recombinant human VAP-1, 0.6 nM.

As for `Cc1cc(-c2csc(-n3nnn(CC(CN)=C(F)F)c3=O)c2)cc2c1NC(=O)CC2` [Example 40, 6-[5-[4-[2-(aminomethyl)-3,3-difluoro-allyl]-5-oxo-tetrazol-1-yl]-3-thienyl]-8-methyl-3,4-dihydro-1H-quinolin-2-one trifluoroacetate], the IC50 in test [1] amounted to 1.6 nM; in test [2], 123 nM; in test [3], 56100 nM; on recombinant human VAP-1, 0.4 nM.

Turning to `CN1C(=O)CCc2cc(-c3csc(-n4nnn(CC(CN)=C(F)F)c4=O)c3)ccc21` [Example 41, 6-[5-[4-[2-(aminomethyl)-3,3-difluoro-allyl]-5-oxo-tetrazol-1-yl]-3-thienyl]-1-methyl-3,4-dihydroquinolin-2-one trifluoroacetate], the IC50 in test [1] was 52 nM; in test [2], 34 nM; in test [3], over 100000 nM; at recombinant human VAP-1, 0.4 nM.

Regarding `CCn1cc(-c2csc(-n3nnn(CC(CN)=C(F)F)c3=O)c2)cn1` [Example 42, 1-[2-(aminomethyl)-3,3-difluoro-allyl]-4-[4-(1-ethylpyrazol-4-yl)-2-thienyl]tetrazol-5-one trifluoroacetate], the IC50 in test [1] is 0.6 nM; in test [2], 228 nM; in test [3], over 100000 nM; at recombinant human VAP-1, 0.4 nM.

For the molecule `CS(=O)(=O)c1ccc(-c2ccc(Cn3nnn(CC(CN)=C(F)F)c3=O)s2)cc1` [Example 43, 1-[2-(aminomethyl)-3,3-difluoro-allyl]-4-[[5-(4-methylsulfonylphenyl)-2-thienyl]methyl]tetrazol-5-one trifluoroacetate], the IC50 in test [1] came to 911 nM; in test [2], 19700 nM; in test [3] it was 72800 nM; on recombinant human VAP-1, 0.4 nM.

These data come from patent publication US12110279B2, “Triazolones, tetrazolones, and imidazolones, or their salts, and pharmaceutical compositions comprising the same” (Yuhan Corporation, priority 2021, dated 2024).
